The source of these data is article PMC6299220 (mBio, 2018).

Values after ≈ are worked out from the molar mass of the structure shown. Like-named read-outs stand apart in the source and are kept apart here.

Data set [1] has as its system M. tuberculosis H37Rv. The data set can be described thus: microbe, parasite or virus in culture. It is filed as cell-based, Mycobacterium tuberculosis.
Data set [2] in a line: in vitro. To be noted: African green monkey.
The nature of data set [3]: in vitro. To be noted: mouse, microsomes.
For data set [4] the following is noted: mouse, microsomes.
Data set [5] is described as follows: physchem. To be noted: pH 7.4, aqueous buffer, kinetic from dmso stock.
Data set [6] concerns the target KasA (Mycobacterium tuberculosis, UniProt P9WQD9). Put plainly: Microscale thermophoresis (MST) binding assay. To be noted: 49.5 nM labeled KasA.
Data set [7] can be described thus: Mouse liver microsomal (MLM) stability. To be noted: mouse, liver microsomes. (Microsomes from liver hold many membrane-bound enzymes, among them those of drug oxidation.)
Where [8] appears, read: Mycobacterium tuberculosis, H37RV.
The mark [9] stands for this setting: MLM stability t1/2 without NADPH.

Chain of KasA (P9WQD9 whole entry): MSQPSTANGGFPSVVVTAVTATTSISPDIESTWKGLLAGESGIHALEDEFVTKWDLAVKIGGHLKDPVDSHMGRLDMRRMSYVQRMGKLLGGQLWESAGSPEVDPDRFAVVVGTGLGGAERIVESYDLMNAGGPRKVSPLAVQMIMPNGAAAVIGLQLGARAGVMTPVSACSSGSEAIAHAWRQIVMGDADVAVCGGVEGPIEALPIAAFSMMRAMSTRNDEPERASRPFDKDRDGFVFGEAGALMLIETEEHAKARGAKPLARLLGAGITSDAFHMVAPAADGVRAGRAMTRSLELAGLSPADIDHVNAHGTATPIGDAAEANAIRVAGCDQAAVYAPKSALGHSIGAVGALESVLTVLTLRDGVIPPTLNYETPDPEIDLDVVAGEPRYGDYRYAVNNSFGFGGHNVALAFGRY

The molecule `CCCCCCS(=O)(=O)Nc1ccc2cnn(C)c2c1` [5a-13, N-(1-Methyl-1H-indazol-6-yl)hexane-1-sulfonamide] displayed an MIC in data set [1] (setting [8]) above 100 µM. The molecule further came in with a CC50 in data set [2] above 170 µM.
Taken in the same sequence, the figures for `CCCCOC(=O)Nc1ccc2cnn(C)c2c1` [5d-3, Butyl (1-methyl-1H-indazol-6-yl)carbamate] were above 100 µM and 25 µM.
As for `CCCCS(=O)(=O)Nc1ccc2cnn(C(C)C)c2c1` [5a-5, N-(1-Isoproply-1H-indazol-6-yl)butane-1-sulfonamide], the half-life in data set [3] (MLM stability t1/2) is 0.878 min; in data set [3] (setting [9]), above 3060 min. The same molecule returned an MLM stability clint in data set [4] of 789 μl/mi/mg protein. Further, the MIC in data set [1] (setting [8]) was above 100 µM. This molecule yielded a solubility (kinetic) in data set [5] above 500 µM.
For the molecule `COCCCCS(=O)(=O)Nc1ccc2cnn(C)c2c1` [5a-15, 4-Methoxy-N-(1-methyl-1H-indazol-6-yl)butane-1-sulfonamide], the MIC in data set [1] and in data set [1] (setting [8]) was above 100 µM throughout. This molecule displayed a CC50 in data set [2] above 100 µM.
On to `[2H]C([2H])([2H])n1ncc2ccc(NS(=O)(=O)CCCC)cc21` [5a-30, N-(1-(Methyl-d3)-1H-indazol-6-yl)butane-1-sulfonamide], for which the half-life was 16.8 min in data set [3] and above 3060 min in data set [3] (setting [9]). In addition, the MLM stability clint in data set [4] worked out at 41.3 μl/mi/mg protein. The molecule also displayed a kinetic solubility in data set [5] above 500 µM. This molecule also yielded a CC50 in data set [2] of 180 µM.
For the molecule `CCCCS(=O)(=O)Nc1ccc2cnn(CC)c2c1` [5a-3, N-(1-Ethyl-1H-indazol-6-yl)butane-1-sulfonamide], the results for the half-life in data set [3] (MLM stability t1/2) and in data set [3] (setting [9]) were 1.29 min and above 3060 min, respectively. In addition, the MLM stability clint in data set [4] turned out to be 536 μl/mi/mg protein. The molecule also yielded an MIC in data set [1] (setting [8]) of 6.2 µM (≈ 1.74 µg/mL). In data set [5], this molecule registered a solubility (kinetic) of 472 µM (≈ 133 µg/mL). For the same molecule, the CC50 in data set [2] turned out to be 44.4 µM.
Take `CCCCS(=O)(=O)Nc1ccc2cnn(CCC)c2c1` [5a-4, N-(1-Propyl-1H-indazol-6-yl)butane-1-sulfonamide]: the figures for the half-life in data set [3] (MLM stability t1/2) and in data set [3] (setting [9]) were 0.753 min and above 3060 min, respectively. In data set [4], this molecule showed an MLM stability clint of 921 μl/mi/mg protein. The MIC in data set [1] (setting [8]) was above 100 µM. This molecule also yielded a kinetic solubility in data set [5] of 130 µM (≈ 38.4 µg/mL).
For the molecule `CCCCNC(=S)Nc1ccc2cnn(C)c2c1` [5b-1, 1-Butyl-3-(1-methyl-1H-indazol-6-yl)thiourea], the half-life in data set [3] (MLM stability t1/2) is 1.17 min; in data set [3] (setting [9]) it was above 3060 min. The same molecule gave an MLM stability clint in data set [4] of 595 μl/mi/mg protein. Besides, the MIC in data set [1] (setting [8]) was 3.1 µM (≈ 0.813 µg/mL). For the same molecule, the solubility (kinetic) in data set [5] came out at 131 µM (≈ 34.4 µg/mL). The molecule also showed a CC50 in data set [2] of 25 µM.
`Cn1ncc2ccc(NS(=O)(=O)CCc3ccccc3)cc21` [5a-22, N-(1-Methyl-1H-indazol-6-yl)-2-phenylethane-1-sulfonamide] returned an MIC in data set [1] (setting [8]) above 100 µM. This molecule also gave a CC50 in data set [2] of 19.8 µM.
Consider `CCCCS(=O)(=O)Nc1ccc2cnn(Cc3ccccc3)c2c1` [5a-7, N-(1-Benzyl-1H-indazol-6-yl)butane-1-sulfonamide], for which the half-life in data set [3] (MLM stability t1/2) is 2.88 min; in data set [3] (setting [9]), above 3060 min. Also, the MLM stability clint in data set [4] was determined as 241 μl/mi/mg protein. In addition, the MIC in data set [1] (setting [8]) is above 100 µM. The molecule also displayed a solubility (kinetic) in data set [5] of 33.8 µM (≈ 11.6 µg/mL).
As to `CCCC(CC)S(=O)(=O)Nc1ccc2cnn(C)c2c1` (stereo not drawn) [5a-17, N-(1-Methyl-1H-indazol-6-yl)hexane-3-sulfonamide], the MIC in data set [1] (setting [8]) is above 100 µM. In data set [2], this molecule gave a CC50 above 100 µM.
Consider `CCCOC(=O)Nc1ccc2cnn(C)c2c1` [5d-2, n-propyl (1-methyl-1H-indazol-6-yl)carbamate], for which the MIC in data set [1] (setting [8]) is above 100 µM. Further, in data set [2], the CC50 stood at 6.7 µM.
In the case of `[2H]C([2H])([2H])n1ncc2ccc(NS(=O)(=O)CCCCC)cc21` [5a-31, N-(1-(Methyl-d3)-1H-indazol-6-yl)pentane-1-sulfonamide], the “improvement in MIC/whole-cell activity over DG167” value in data set [1] came to 2 fold. The MIC in data set [1] (setting [8]) stood at 0.2 µM (≈ 0.0569 µg/mL). The CC50 in data set [2] was above 100 µM.
As for `CCCCC(=O)Nc1ccc2cnn(C)c2c1` [5c-2, N-(1-Methyl-1H-indazol-6-yl)pentanamide], the half-life in data set [3] (MLM stability t1/2) came to 0.668 min; in data set [3] (setting [9]) it was 13.1 min. In addition, in data set [4], the MLM stability clint is 1,040 μl/mi/mg protein. This molecule also came in with an MIC in data set [1] (setting [8]) above 100 µM. This molecule registered a solubility (kinetic) in data set [5] above 500 µM.
Molecule `CCC(=O)Nc1ccc2cnn(C)c2c1` [5c-1, N-(1-methyl-1H-indazol-6-yl)propionamide] showed a half-life in data set [3] (MLM stability t1/2) of 1.29 min. Besides, the MLM stability clint in data set [4] stood at 536 μl/mi/mg protein. Also, the MIC in data set [1] (setting [8]) is above 100 µM. Moreover, the solubility (kinetic) in data set [5] stood at 472 µM (≈ 95.9 µg/mL).
The molecule `CCOC(=O)Nc1ccc2cnn(C)c2c1` [5d-1, Ethyl (1-methyl-1H-indazol-6-yl)carbamate] returned a half-life in data set [3] (MLM stability t1/2) of 1.16 min. The same molecule had an MLM stability clint in data set [4] of 597 μl/mi/mg protein. The MIC in data set [1] (setting [8]) was above 100 µM. Also, the kinetic solubility in data set [5] was above 500 µM. In data set [2], this molecule yielded a CC50 of 110 µM.
`CCCC(C)S(=O)(=O)Nc1ccc2cnn(C)c2c1` (stereo not drawn) [5a-18, N-(1-Methyl-1H-indazol-6-yl)pentane-2-sulfonamide] came in with an MIC in data set [1] (setting [8]) above 100 µM. The CC50 in data set [2] was above 100 µM.
Regarding `CCCCCS(=O)(=O)Nc1ccc2cnn(C)c2c1` [5a-12, N-(1-Methyl-1H-indazol-6-yl)pentane-1-sulfonamide], the “improvement in MIC/whole-cell activity over DG167” value in data set [1] came out at 2 fold. For the same molecule, in data set [1] (setting [8]), the MIC turned out to be 0.2 µM (≈ 0.0563 µg/mL). Besides, the CC50 in data set [2] was above 100 µM.
In data set [4], `CCCCS(=O)(=O)Nc1ccc2[nH]nc(C)c2c1` [5g, N-(3-Methyl-1H-indazol-5-yl)butane-1-sulfonamide] showed an MLM stability clint of 60.3 μl/mi/mg protein. Also, the “improvement in MIC/whole-cell activity over DG167” value in data set [1] is recorded as 2 fold. Besides, the MIC in data set [1] (setting [8]) worked out at 0.2 µM (≈ 0.0535 µg/mL). The affinity in data set [6], expressed as Kd, was 46.5 ± 18.7 nM. Moreover, the half-life was found to be 11.5 min in data set [7] (MLM stability t1/2, with NADPH) and 141 min in data set [7] (MLM stability t1/2 without NADPH, without NADPH). This molecule showed a CC50 in data set [2] of 94 µM.
`CCCCS(=O)(=O)Nc1ccc2cnn(-c3ccccc3)c2c1` [5a-6, N-(1-Phenyl-1H-indazol-6-yl)butane-1-sulfonamide]: the half-life in data set [3] (MLM stability t1/2) was 0.505 min; in data set [3] (setting [9]) it was above 3060 min. Also, in data set [4], the MLM stability clint is recorded as 1,370 μl/mi/mg protein. The molecule further came in with an MIC in data set [1] (setting [8]) above 100 µM. In data set [5], this molecule showed a solubility (kinetic) of 33.7 µM (≈ 11.1 µg/mL).
Molecule `Cn1ncc2ccc(NS(=O)(=O)CCCCC#N)cc21` [5a-14, 4-Cyano-N-(1-methyl-1H-indazol-6-yl)butane-1-sulfonamide] showed an MIC in data set [1] (setting [8]) of 3.1 µM (≈ 0.906 µg/mL). This molecule displayed a CC50 in data set [2] above 100 µM.
Taken in the same sequence, the figures for `[2H]C([2H])([2H])n1ncc2ccc(NS(=O)(=O)CCCCOC)cc21` [5a-32, 4-Methoxy-N-(1-(methyl-d3)-1H-indazol-6-yl)butane-1-sulfonamide] were above 100 µM and above 100 µM.
With `CO[C@H]1/C=C/O[C@@]2(C)Oc3c(C)c(O)c4c(O)c(c(/C=N/N5CCN(C)CC5)c(O)c4c3C2=O)NC(=O)/C(C)=C\C=C\[C@H](C)[C@H](O)[C@@H](C)[C@@H](O)[C@@H](C)[C@H](OC(C)=O)[C@@H]1C` [RIF, rifampin], the MIC in data set [1] (setting [8]) is 0.001 µM (≈ 0.000823 µg/mL).

Usually half-life stands for the time in which the quantity being followed falls by half. In general, solubility (kinetic) refers to solubility judged after dilution from a stock solution rather than from solid. Broadly, the Kd is a measure of binding affinity in units of concentration.
